Results as given in ChEMBL document CHEMBL1131212, “Synthesis and adrenergic activity of a new series of N-aryl dicyclopropyl ketone oxime ethers: SAR and stereochemical aspects” (J Med Chem, 1998).

molecular target: T1, Adrenergic receptor alpha-1 (Rattus norvegicus, UniProt P15823+P23944+P43140); assay: Inhibition of alpha-1 adrenergic receptor isolated from rat ventricle homogenates; conditions: not given
T1 sequence (P15823 whole entry): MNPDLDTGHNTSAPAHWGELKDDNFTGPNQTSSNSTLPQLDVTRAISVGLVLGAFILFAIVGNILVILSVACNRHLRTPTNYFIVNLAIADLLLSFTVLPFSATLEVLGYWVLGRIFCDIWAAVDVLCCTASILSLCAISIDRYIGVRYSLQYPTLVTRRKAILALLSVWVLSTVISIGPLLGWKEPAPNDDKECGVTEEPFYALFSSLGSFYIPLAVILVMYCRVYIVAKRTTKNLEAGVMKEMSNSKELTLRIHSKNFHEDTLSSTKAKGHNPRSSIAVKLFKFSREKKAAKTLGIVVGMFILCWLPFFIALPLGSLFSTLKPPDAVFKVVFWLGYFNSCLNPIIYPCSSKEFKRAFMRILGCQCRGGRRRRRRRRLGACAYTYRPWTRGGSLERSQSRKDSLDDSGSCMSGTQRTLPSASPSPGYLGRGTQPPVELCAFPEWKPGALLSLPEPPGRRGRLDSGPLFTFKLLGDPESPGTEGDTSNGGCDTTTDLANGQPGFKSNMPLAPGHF
T1 sequence (P23944 whole entry): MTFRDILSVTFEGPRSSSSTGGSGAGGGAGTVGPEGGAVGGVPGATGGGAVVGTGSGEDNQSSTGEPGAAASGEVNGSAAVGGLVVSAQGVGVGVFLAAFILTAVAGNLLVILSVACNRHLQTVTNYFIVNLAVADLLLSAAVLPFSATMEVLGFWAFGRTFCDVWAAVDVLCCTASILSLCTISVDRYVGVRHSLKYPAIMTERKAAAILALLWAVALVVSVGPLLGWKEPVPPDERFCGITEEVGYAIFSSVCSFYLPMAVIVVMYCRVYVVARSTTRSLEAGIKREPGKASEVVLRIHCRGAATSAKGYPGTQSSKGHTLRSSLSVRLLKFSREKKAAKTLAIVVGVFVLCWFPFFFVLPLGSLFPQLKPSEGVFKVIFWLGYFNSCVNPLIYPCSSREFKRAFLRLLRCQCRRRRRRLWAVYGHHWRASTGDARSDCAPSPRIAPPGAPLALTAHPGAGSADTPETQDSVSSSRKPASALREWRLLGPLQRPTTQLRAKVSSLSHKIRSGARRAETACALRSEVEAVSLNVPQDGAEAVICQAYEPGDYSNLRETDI
T1 sequence (P43140 whole entry): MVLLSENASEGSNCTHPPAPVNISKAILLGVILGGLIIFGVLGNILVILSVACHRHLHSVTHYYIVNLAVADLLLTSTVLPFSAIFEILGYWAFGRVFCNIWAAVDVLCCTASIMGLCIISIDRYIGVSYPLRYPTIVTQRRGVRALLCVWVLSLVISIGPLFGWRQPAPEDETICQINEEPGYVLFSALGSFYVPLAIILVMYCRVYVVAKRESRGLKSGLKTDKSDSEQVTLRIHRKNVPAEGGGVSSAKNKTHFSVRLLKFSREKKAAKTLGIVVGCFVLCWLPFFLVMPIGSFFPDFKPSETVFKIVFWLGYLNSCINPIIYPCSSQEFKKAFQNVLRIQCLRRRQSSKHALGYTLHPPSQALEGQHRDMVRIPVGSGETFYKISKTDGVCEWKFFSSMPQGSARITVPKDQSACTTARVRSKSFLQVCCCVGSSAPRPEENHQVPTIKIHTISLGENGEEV

Row | Structure (SMILES) | IC50 [nM]
1 | OC(CNc1ccccc1)CON=C(C1CC1)C1CC1 (configuration not stated) | 13000
2 | Cc1ccnc(NCC(O)CON=C(C2CC2)C2CC2)c1 (configuration not stated) | 15300
3 | OC(CNc1ccccn1)CON=C(C1CC1)C1CC1 (configuration not stated) | 36400
4 | CC(C)(Cc1ccc(NCC(O)CON=C(C2CC2)C2CC2)cc1)[N+](=O)[O-] (configuration not stated) | 12600
5 | Cc1cccc(NCC(O)CON=C(C2CC2)C2CC2)c1 (configuration not stated) | > 100000
6 | Cc1ccc(NCC(O)CON=C(C2CC2)C2CC2)cc1 (configuration not stated) | 15000
7 | OC(CNc1nc2ccccc2[nH]1)CON=C(C1CC1)C1CC1 (configuration not stated) | > 100000
8 | O=C(O)c1ccc(NCC(O)CON=C(C2CC2)C2CC2)cc1 (configuration not stated) | 37300
9 | OC(CNc1ccccc1I)CON=C(C1CC1)C1CC1 (configuration not stated) | 53000
10 | OC(CNc1ccncc1)CON=C(C1CC1)C1CC1 (configuration not stated) | 72300

molecular target: T2, Adrenergic receptor beta (Rattus norvegicus, UniProt P18090+P10608+P26255); assay: Inhibition of beta adrenergic receptor isolated from rat ventricle homogenates.; conditions: not given

Row | Structure (SMILES) | IC50 [nM]
11 | OC(CNc1ccccc1)CON=C(C1CC1)C1CC1 (configuration not stated) | 3.3
12 | Cc1ccnc(NCC(O)CON=C(C2CC2)C2CC2)c1 (configuration not stated) | 23.9
13 | OC(CNc1ccccn1)CON=C(C1CC1)C1CC1 (configuration not stated) | 35.6
14 | Cc1cccc(NCC(O)CON=C(C2CC2)C2CC2)c1 (configuration not stated) | 501
15 | Cc1ccc(NCC(O)CON=C(C2CC2)C2CC2)cc1 (configuration not stated) | 7.6
16 | OC(CNc1nc2ccccc2[nH]1)CON=C(C1CC1)C1CC1 (configuration not stated) | 13.2
17 | O=C(O)c1ccc(NCC(O)CON=C(C2CC2)C2CC2)cc1 (configuration not stated) | 10
18 | OC(CNc1ccccc1I)CON=C(C1CC1)C1CC1 (configuration not stated) | 108
19 | OC(CNc1ccncc1)CON=C(C1CC1)C1CC1 (configuration not stated) | 32.3

molecular target: T2, Adrenergic receptor beta; assay: The compound was tested for the concentration to inhibit 50% of Beta adrenergic receptor isolated from rat ventricle homogenates.; assay type: functional; conditions: not given

Row | Structure (SMILES) | IC50 [nM]
20 | CC(C)(Cc1ccc(NCC(O)CON=C(C2CC2)C2CC2)cc1)[N+](=O)[O-] (configuration not stated) | 3.4

species on record: Cavia porcellus; assay: Chronotropic effect studied in right atria isolated from guinea pig and is expressed in pA2.; conditions: read-out: pA2 (converted)

Row | Structure (SMILES) | Kb [nM]
21 | Cc1cccc(NCC(O)CON=C(C2CC2)C2CC2)n1 (configuration not stated) | 10000
22 | CN(CC(O)CON=C(C1CC1)C1CC1)c1ccccc1 (configuration not stated) | 794000
23 | OC(CNc1ccccc1)CON=C(C1CC1)C1CC1 (configuration not stated) | 39.8
24 | Cc1ccnc(NCC(O)CON=C(C2CC2)C2CC2)c1 (configuration not stated) | 31.6
25 | Cc1ccc(NCC(O)CON=C(C2CC2)C2CC2)nc1 (configuration not stated) | 25100
26 | OC(CNc1ccccn1)CON=C(C1CC1)C1CC1 (configuration not stated) | 79.4
27 | CC(C)(Cc1ccc(NCC(O)CON=C(C2CC2)C2CC2)cc1)[N+](=O)[O-] (configuration not stated) | 20
28 | Cc1cccc(NCC(O)CON=C(C2CC2)C2CC2)c1 (configuration not stated) | 100
29 | Cc1ccc(NCC(O)CON=C(C2CC2)C2CC2)cc1 (configuration not stated) | 12.6
30 | OC(CNc1nc2ccccc2[nH]1)CON=C(C1CC1)C1CC1 (configuration not stated) | 63.1
31 | O=C(O)c1ccc(NCC(O)CON=C(C2CC2)C2CC2)cc1 (configuration not stated) | 100
32 | OC(CNc1ccccc1I)CON=C(C1CC1)C1CC1 (configuration not stated) | 1260
33 | CC(C)(N)Cc1ccc(NCC(O)CON=C(C2CC2)C2CC2)cc1 (configuration not stated) | 501
34 | OC(CNc1ccncc1)CON=C(C1CC1)C1CC1 (configuration not stated) | 63.1

species on record: Rattus norvegicus; assay: The compound was tested for percent increase in heart rate with respect to that measured after isoprenaline in 5-10 animals and showing significant increase (p <= 0.05) with respect to baseline values (293 +/- 7 to 310 +/- 5 […]).; assay type: functional; conditions: not given

Row | Structure (SMILES) | Increase [%]
35 | Cc1cccc(NCC(O)CON=C(C2CC2)C2CC2)c1 (configuration not stated) | 42
36 | Cc1ccc(NCC(O)CON=C(C2CC2)C2CC2)cc1 (configuration not stated) | 64
37 | O=C(O)c1ccc(NCC(O)CON=C(C2CC2)C2CC2)cc1 (configuration not stated) | 65

species on record: Rattus norvegicus; assay: The compound was tested for percent increase in heart rate with respect to that measured after isoprenaline in 5-10 animals.; assay type: functional; conditions: not given

Row | Structure (SMILES) | Increase [%]
38 | CC(C)NCC(O)COc1cccc2ccccc12 (configuration not stated) [PROPRANOLOL] | 0
39 | OC(CNc1ccccc1)CON=C(C1CC1)C1CC1 (configuration not stated) | 10
40 | Cc1ccnc(NCC(O)CON=C(C2CC2)C2CC2)c1 (configuration not stated) | 0
41 | OC(CNc1ccccn1)CON=C(C1CC1)C1CC1 (configuration not stated) | 0
42 | CC(C)(Cc1ccc(NCC(O)CON=C(C2CC2)C2CC2)cc1)[N+](=O)[O-] (configuration not stated) | 10
43 | OC(CNc1nc2ccccc2[nH]1)CON=C(C1CC1)C1CC1 (configuration not stated) | 10
44 | OC(CNc1ccccc1I)CON=C(C1CC1)C1CC1 (configuration not stated) | 10
45 | OC(CNc1ccncc1)CON=C(C1CC1)C1CC1 (configuration not stated) | 0

test system: Rattus norvegicus; assay: Tested for MED (smallest dose giving maximum effect) evaluated by dose-response curve, from 0.1 to 5 mg/kg in 5-10 animals on iv administration.; assay type: functional; conditions: dose mg/kg 0.1-5

Row | Structure (SMILES) | MED [µmol/kg]
46 | CC(C)NCC(O)COc1cccc2ccccc12 (configuration not stated) [PROPRANOLOL] | 3
47 | OC(CNc1ccccc1)CON=C(C1CC1)C1CC1 (configuration not stated) | 2.7
48 | Cc1ccnc(NCC(O)CON=C(C2CC2)C2CC2)c1 (configuration not stated) | 2.6
49 | OC(CNc1ccccn1)CON=C(C1CC1)C1CC1 (configuration not stated) | 4.4
50 | CC(C)(Cc1ccc(NCC(O)CON=C(C2CC2)C2CC2)cc1)[N+](=O)[O-] (configuration not stated) | 2.4
51 | Cc1cccc(NCC(O)CON=C(C2CC2)C2CC2)c1 (configuration not stated) | 9.2
52 | Cc1ccc(NCC(O)CON=C(C2CC2)C2CC2)cc1 (configuration not stated) | 2.5
53 | OC(CNc1nc2ccccc2[nH]1)CON=C(C1CC1)C1CC1 (configuration not stated) | 2
54 | O=C(O)c1ccc(NCC(O)CON=C(C2CC2)C2CC2)cc1 (configuration not stated) | 2.3
55 | OC(CNc1ccccc1I)CON=C(C1CC1)C1CC1 (configuration not stated) | 5.7
56 | OC(CNc1ccncc1)CON=C(C1CC1)C1CC1 (configuration not stated) | 3.7

species on record: Cavia porcellus; assay: Ionotropic effect in electrically driven left atrial preparation (Atria isolated from guinea pig) and is expressed in pA2.; conditions: Cardiac atrium, read-out: pA2 (converted)

Row | Structure (SMILES) | Kb [nM]
57 | OC(CNc1ccccc1)CON=C(C1CC1)C1CC1 (configuration not stated) | 126
58 | Cc1ccnc(NCC(O)CON=C(C2CC2)C2CC2)c1 (configuration not stated) | 79.4
59 | OC(CNc1ccccn1)CON=C(C1CC1)C1CC1 (configuration not stated) | 63.1
60 | CC(C)(Cc1ccc(NCC(O)CON=C(C2CC2)C2CC2)cc1)[N+](=O)[O-] (configuration not stated) | 79.4
61 | Cc1cccc(NCC(O)CON=C(C2CC2)C2CC2)c1 (configuration not stated) | 126
62 | Cc1ccc(NCC(O)CON=C(C2CC2)C2CC2)cc1 (configuration not stated) | 10
63 | OC(CNc1nc2ccccc2[nH]1)CON=C(C1CC1)C1CC1 (configuration not stated) | 100
64 | O=C(O)c1ccc(NCC(O)CON=C(C2CC2)C2CC2)cc1 (configuration not stated) | 631
65 | OC(CNc1ccccc1I)CON=C(C1CC1)C1CC1 (configuration not stated) | 2510
66 | OC(CNc1ccncc1)CON=C(C1CC1)C1CC1 (configuration not stated) | 251

molecular target: Adrenergic receptor beta (Rattus norvegicus) (UniProt P18090+P10608+P26255); assay: not given; conditions: not given

Row | Structure (SMILES) | Specificity
67 | OC(CNc1ccccc1)CON=C(C1CC1)C1CC1 (configuration not stated) | 3940
68 | Cc1ccnc(NCC(O)CON=C(C2CC2)C2CC2)c1 (configuration not stated) | 640
69 | OC(CNc1ccccn1)CON=C(C1CC1)C1CC1 (configuration not stated) | 1020
70 | CC(C)(Cc1ccc(NCC(O)CON=C(C2CC2)C2CC2)cc1)[N+](=O)[O-] (configuration not stated) | 3700
71 | Cc1cccc(NCC(O)CON=C(C2CC2)C2CC2)c1 (configuration not stated) | > 200
72 | Cc1ccc(NCC(O)CON=C(C2CC2)C2CC2)cc1 (configuration not stated) | 1970
73 | OC(CNc1nc2ccccc2[nH]1)CON=C(C1CC1)C1CC1 (configuration not stated) | > 7580
74 | O=C(O)c1ccc(NCC(O)CON=C(C2CC2)C2CC2)cc1 (configuration not stated) | 3570
75 | OC(CNc1ccccc1I)CON=C(C1CC1)C1CC1 (configuration not stated) | 490
76 | OC(CNc1ccncc1)CON=C(C1CC1)C1CC1 (configuration not stated) | 2240

molecular target: Beta-1 adrenergic receptor (Cavia porcellus); assay: Beta-1 adrenergic receptor-Antagonism in isolated guinea pig atria. ( for R-enantiomer); conditions: read-out: pA2 app (converted)

Row | Structure (SMILES) | Kb [nM]
77 | Cc1ccc(NCC(O)CON=C(C2CC2)C2CC2)cc1 (configuration not stated) | 12.6
